Patent US20230002359A1, “PESTICIDALLY ACTIVE FUSED BICYCLIC HETEROAROMATIC COMPOUNDS” (priority 2019, published 2023)

How the values were obtained:
Type in all cases: in vivo
[1] = test system: Chilo suppressalis (Striped Rice Stemborer); test: Example B3: Chilo suppressalis (striped rice stemborer), artificial diet, L2 larvae; conditions: 144 h, application rate of 200 ppm, 6 days after infestation, L2 larvae, read-out: control in at least one of the three categories (mortality, anti-feedant effect, or growth inhibition)
Outline: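 Artificial diet in wells was treated with aqueous test solutions diluted from 10'000 ppm DMSO stocks, dried, then infested with 6-8 L2 larvae per well. Mortality, anti-feeding effect and growth inhibition were scored against untreated samples 6 days after infestation; control means any category exceeds the untreated sample.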

[2] = test system: Diabrotica Balteata (Corn Root Worm); test: Example B1: Diabrotica balteata (corn root worm), maize sprouts sprayed, L2 larvae; conditions: 96 h, application rate of 200 ppm, 4 days after infestation, L2 larvae, read-out: control in at least one of the two categories (mortality or growth inhibition)
Outline: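 Larvae at L2 stage, 6 to 10 per well, feed on dried, spray-treated maize sprouts set on agar. Evaluation after 4 days compares mortality and growth inhibition with untreated samples.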

[3] = test system: Myzus persicae (Green Peach Aphid); test: Example B5: Myzus persicae (green peach aphid) feeding/contact activity, sunflower leaf discs; conditions: foliar, 144 h, application rate of 200 ppm, 6 days after infestation
Method: Sunflower leaf discs were placed onto agar in a 24-well microtiter plate and sprayed with aqueous test solutions prepared from 10′000 ppm DMSO stock solutions. After drying, the leaf discs were infested with an aphid population of mixed ages. The samples were assessed for mortality 6 days after infestation.

[4] = test system: Spodoptera littoralis (Egyptian Cotton Leaf Worm); test: Example B7: Spodoptera littoralis (Egyptian cotton leaf worm), cotton leaf discs sprayed, L1 larvae; conditions: foliar, 72 h, application rate of 200 ppm, 3 days after infestation, L1 larvae, read-out: control in at least one of the three categories (mortality, anti-feedant effect, or growth inhibition)
Outline: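 Cotton leaf discs on agar were sprayed with aqueous test solutions made from 10′000 ppm DMSO stocks, dried, then infested with five L1 larvae. Mortality, anti-feeding effect and growth inhibition were scored against untreated discs 3 days after infestation; control means any category exceeds untreated.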

[5] = test system: Plutella xylostella (Diamond Back Moth); test: Example B4: Plutella xylostella (diamond back moth), artificial diet, eggs, 24-well; conditions: 192 h, application rate of 200 ppm, 8 days after infestation, eggs, read-out: control in at least one of the two categories (mortality or growth inhibition)
Method: 24-well microtiter plates with artificial diet were treated with aqueous test solutions prepared from 10′000 ppm DMSO stock solutions by pipetting. After drying, Plutella eggs were pipetted through a plastic stencil onto a gel blotting paper and the plate was closed with it. The samples were assessed for mortality and growth inhibition in comparison to untreated samples 8 days after infestation.

[6] = test system: Myzus persicae (Green Peach Aphid); test: Example B6: Myzus persicae (green peach aphid) intrinsic activity, sucrose solution; conditions: 120 h, test rate of 12 ppm, 5 days after infestation, intrinsic activity, read-out: mortality
Outline: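 Mortality was read 5 days after infestation. Aphids on pea seedlings fed through a stretched Parafilm membrane on inverted 24-well plates containing sucrose solution mixed with test compound, which was diluted from 10′000 ppm DMSO stock.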

[7] = test system: Euschistus heros (Neotropical Brown Stink Bug); test: Example B2: Euschistus heros (neotropical brown stink bug), soybean leaves sprayed, N2 nymphs; conditions: 120 h, application rate of 200 ppm, 5 days after infestation, N2 nymphs, read-out: control in at least one of the two categories (mortality or growth inhibition)
Method: Soybean leaves on agar in 24-well microtiter plates were sprayed with aqueous test solutions prepared from 10′000 ppm DMSO stock solutions. After drying the leaves were infested with N2 nymphs. The samples were assessed for mortality and growth inhibition in comparison to untreated samples 5 days after infestation.

C[C@H](Nc1ncnc2c(C(F)(F)F)cc(Cl)cc12)c1ncnn1-c1ncccn1 [P.24, 6-chloro-N-[(1S)-1-(2-pyrimidin-2-yl-1,2,4-triazol-3-yl)ethyl]-8-(trifluoromethyl)quinazolin-4-amine]
≥ 80%: percent control (mortality, anti-feedant effect or growth inhibition) at 200 ppm [1] | percent control (mortality or growth inhibition) at 200 ppm [2] | mortality at 200 ppm [3] | percent control (mortality, anti-feedant effect or growth inhibition) at 200 ppm [4] | percent control (mortality or growth inhibition) at 200 ppm [5] | mortality at 12 ppm [6]

CC(Nc1ncnc2c(C(F)(F)F)cc(Cl)cc12)c1ncnn1-c1ncccn1 (stereo not shown) [P.40, 6-chloro-N-[1-(2-pyrimidin-2-yl-1,2,4-triazol-3-yl)ethyl]-8-(trifluoromethyl)quinazolin-4-amine]
≥ 80%: percent control (mortality, anti-feedant effect or growth inhibition) at 200 ppm [1] | percent control (mortality or growth inhibition) at 200 ppm [2] | percent control (mortality, anti-feedant effect or growth inhibition) at 200 ppm [4] | percent control (mortality or growth inhibition) at 200 ppm [5] | mortality at 12 ppm [6] | percent control (mortality or growth inhibition) at 200 ppm [7]

CC(Nc1nc(C(F)(F)F)nc2c(C(F)(F)F)cc(C(F)(F)F)cc12)c1ncnn1-c1ccc(C#N)cn1 (stereo not shown) [P.59, 6-[5-[1-[[2,6,8-tris(trifluoromethyl)quina-zolin-4-yl]amino]ethyl]-1,2,4-triazol-1-yl]pyridine-3-carbonitrile]
≥ 80%: mortality at 200 ppm [3]

CC(c1ncnn1-c1ncccn1)N(C)c1ncnc2c(C(F)(F)F)cc(Br)cc12 (stereo not shown) [P.127, 6-bromo-N-methyl-N-[1-(2-pyrimidin-2-yl-1,2,4-triazol-3-yl)ethyl]-8-(trifluoromethyl)quinazolin-4-amine]
≥ 80%: percent control (mortality, anti-feedant effect or growth inhibition) at 200 ppm [1] | percent control (mortality or growth inhibition) at 200 ppm [2] | mortality at 200 ppm [3] | percent control (mortality, anti-feedant effect or growth inhibition) at 200 ppm [4] | percent control (mortality or growth inhibition) at 200 ppm [5] | mortality at 12 ppm [6]

CC(c1ncnn1-c1ncccn1)N(C)c1ncnc2c(Cl)c(F)c(Cl)cc12 (stereo not shown) [P.165, 6,8-dichloro-7-fluoro-N-methyl-N-[1-(2-pyrimidin-2-yl-1,2,4-triazol-3-yl)ethyl]quinazolin-4-amine]
≥ 80%: mortality at 200 ppm [3]

COCN(c1ncnc2c(C(F)(F)F)cc(C(F)(F)F)cc12)[C@@H](C)c1ncnn1-c1ccc(C#N)cn1 [P.169, 6-[5-[(1S)-1-[[6,8-bis(trifluoromethyl)quina-zolin-4-yl]-(methoxymethyl)amino]ethyl]-1,2,4-triazol-1-yl]pyridine-3-carbonitrile]
≥ 80%: percent control (mortality, anti-feedant effect or growth inhibition) at 200 ppm [1] | percent control (mortality or growth inhibition) at 200 ppm [2] | percent control (mortality, anti-feedant effect or growth inhibition) at 200 ppm [4] | percent control (mortality or growth inhibition) at 200 ppm [5] | mortality at 12 ppm [6] | percent control (mortality or growth inhibition) at 200 ppm [7]

C[C@@H](c1ncnn1-c1ccc(C#N)cn1)N(C)c1ncnc2c(C(F)(F)F)cc(I)cc12 [P.184, 6-[5-[(1S)-1-[[6-iodo-8-(trifluoromethyl)quinazolin-4-yl]-methyl-amino]ethyl]-1,2,4-triazol-1-yl]pyridine-3-carbonitrile]
≥ 80%: percent control (mortality, anti-feedant effect or growth inhibition) at 200 ppm [1] | percent control (mortality or growth inhibition) at 200 ppm [2] | mortality at 200 ppm [3] | percent control (mortality or growth inhibition) at 200 ppm [5] | mortality at 12 ppm [6]

CC(c1ncnn1-c1ccc(C#N)cn1)N(C)c1ncnc2c(Br)cc(OC(F)(F)F)cc12 (stereo not shown) [P.217, 6-[5-[1-[[8-bromo-6-(trifluoromethoxy)quinazo-lin-4-yl]-methyl-amino]ethyl]-1,2,4-triazol-1-yl]pyridine-3-carbonitrile]
≥ 80%: percent control (mortality, anti-feedant effect or growth inhibition) at 200 ppm [1] | percent control (mortality or growth inhibition) at 200 ppm [2] | mortality at 200 ppm [3] | percent control (mortality, anti-feedant effect or growth inhibition) at 200 ppm [4] | percent control (mortality or growth inhibition) at 200 ppm [5] | mortality at 12 ppm [6]

CC(Nc1ncnc2c(C(F)(F)F)cc(OC(F)(F)F)cc12)c1ncnn1-c1ccc(C#N)cn1 (stereo not shown) [P.220, 6-[5-[1-[[6-(trifluoromethoxy)-8-(trifluoromethyl)quinazolin-4-yl]amino]ethyl]-1,2,4-triazol-1-yl]pyridine-3-carbonitrile]
≥ 80%: percent control (mortality, anti-feedant effect or growth inhibition) at 200 ppm [1] | percent control (mortality or growth inhibition) at 200 ppm [2] | percent control (mortality, anti-feedant effect or growth inhibition) at 200 ppm [4] | percent control (mortality or growth inhibition) at 200 ppm [5] | mortality at 12 ppm [6] | percent control (mortality or growth inhibition) at 200 ppm [7]

CC(c1ncnn1-c1ccc(OC(F)F)cn1)N(C)c1ncnc2c(C(F)(F)F)cc(Cl)cc12 (stereo not shown) [P.236, 6-chloro-N-[1-[2-[5-(difluoromethoxy)-2-pyridyl]-1,2,4-triazol-3-yl]ethyl]-N-methyl-8-(trifluoromethyl)quinazolin-4-amine]
≥ 80%: percent control (mortality, anti-feedant effect or growth inhibition) at 200 ppm [1] | percent control (mortality or growth inhibition) at 200 ppm [2] | mortality at 200 ppm [3] | percent control (mortality, anti-feedant effect or growth inhibition) at 200 ppm [4] | percent control (mortality or growth inhibition) at 200 ppm [5] | mortality at 12 ppm [6]

C=CCN(c1ncnc2c(C(F)(F)F)cc(C(F)(F)F)cc12)C(C)c1ncnn1-c1ccc(C#N)cn1 (stereo not shown) [P.260, 6-[5-[1-[allyl-[6,8-bis(trifluoromethyl)quina-zolin-4-yl]amino]ethyl]-1,2,4-triazol-1-yl]pyridine-3-carbonitrile]
≥ 80%: percent control (mortality, anti-feedant effect or growth inhibition) at 200 ppm [1] | percent control (mortality or growth inhibition) at 200 ppm [2] | percent control (mortality, anti-feedant effect or growth inhibition) at 200 ppm [4] | percent control (mortality or growth inhibition) at 200 ppm [5] | mortality at 12 ppm [6] | percent control (mortality or growth inhibition) at 200 ppm [7]

C[C@@H](c1ncnn1-c1ncccn1)N(C)c1ncnc2c(C(F)(F)F)cc(S(=O)(=O)C(F)(F)F)cc12 [P.262, N-methyl-N-[(1S)-1-(2-pyrimidin-2-yl-1,2,4-triazol-3-yl)ethyl]-8-(trifluoromethyl)-6-(trifluoromethylsulfonyl) quinazolin-4-amine]
≥ 80%: percent control (mortality, anti-feedant effect or growth inhibition) at 200 ppm [1] | percent control (mortality or growth inhibition) at 200 ppm [2] | percent control (mortality, anti-feedant effect or growth inhibition) at 200 ppm [4] | percent control (mortality or growth inhibition) at 200 ppm [5] | mortality at 12 ppm [6] | percent control (mortality or growth inhibition) at 200 ppm [7]

C[C@H](Nc1ncnc2c(I)cc(C(F)(F)F)cc12)c1ncnn1-c1ccc(C#N)cn1 [P.263, 6-[5-[(1S)-1-[[8-iodo-6-(trifluoromethyl)quinazolin-4-yl]amino]ethyl]-1,2,4-triazol-1-yl]pyridine-3-carbonitrile]
≥ 80%: percent control (mortality, anti-feedant effect or growth inhibition) at 200 ppm [1] | percent control (mortality or growth inhibition) at 200 ppm [2] | percent control (mortality, anti-feedant effect or growth inhibition) at 200 ppm [4] | percent control (mortality or growth inhibition) at 200 ppm [5] | mortality at 12 ppm [6] | percent control (mortality or growth inhibition) at 200 ppm [7]

CC(c1ncnn1-c1ccc(C#N)cn1)N(C)c1ncnc2c(Br)cc(C(F)(F)F)cc12 (stereo not shown) [P.266, 6-[5-[1-[[8-bromo-6-(trifluoromethyl)quinazolin-4-yl]-methyl-amino]ethyl]-1,2,4-triazol-1-yl]pyridine-3-carbonitrile]
≥ 80%: percent control (mortality, anti-feedant effect or growth inhibition) at 200 ppm [1] | percent control (mortality or growth inhibition) at 200 ppm [2] | percent control (mortality, anti-feedant effect or growth inhibition) at 200 ppm [4] | percent control (mortality or growth inhibition) at 200 ppm [5] | mortality at 12 ppm [6] | percent control (mortality or growth inhibition) at 200 ppm [7]

C[C@@H](c1ncnn1-c1ncccn1)N(CC1CC1)c1ncnc2c(Cl)cc(C(F)(F)F)cc12 [P.272, 8-chloro-N-(cyclopropylmethyl)-N-[(1S)-1-(2-pyrimidin-2-yl-1,2,4-triazol-3-yl)ethyl]-6-(trifluoromethyl)quinazolin-4-amine]
≥ 80%: percent control (mortality, anti-feedant effect or growth inhibition) at 200 ppm [1] | percent control (mortality or growth inhibition) at 200 ppm [2] | percent control (mortality, anti-feedant effect or growth inhibition) at 200 ppm [4] | percent control (mortality or growth inhibition) at 200 ppm [5] | mortality at 12 ppm [6] | percent control (mortality or growth inhibition) at 200 ppm [7]
